Target: T1, ypMnmC (Yersinia pestis, UniProt Q8ZD36)
T1 construct: gene mnmC
Settings: selenomethionyl protein; co-purified FAD, none added; MnmC1 domain site; also in 3SGL with SAM

T1 sequence (Q8ZD36 whole entry, looked up): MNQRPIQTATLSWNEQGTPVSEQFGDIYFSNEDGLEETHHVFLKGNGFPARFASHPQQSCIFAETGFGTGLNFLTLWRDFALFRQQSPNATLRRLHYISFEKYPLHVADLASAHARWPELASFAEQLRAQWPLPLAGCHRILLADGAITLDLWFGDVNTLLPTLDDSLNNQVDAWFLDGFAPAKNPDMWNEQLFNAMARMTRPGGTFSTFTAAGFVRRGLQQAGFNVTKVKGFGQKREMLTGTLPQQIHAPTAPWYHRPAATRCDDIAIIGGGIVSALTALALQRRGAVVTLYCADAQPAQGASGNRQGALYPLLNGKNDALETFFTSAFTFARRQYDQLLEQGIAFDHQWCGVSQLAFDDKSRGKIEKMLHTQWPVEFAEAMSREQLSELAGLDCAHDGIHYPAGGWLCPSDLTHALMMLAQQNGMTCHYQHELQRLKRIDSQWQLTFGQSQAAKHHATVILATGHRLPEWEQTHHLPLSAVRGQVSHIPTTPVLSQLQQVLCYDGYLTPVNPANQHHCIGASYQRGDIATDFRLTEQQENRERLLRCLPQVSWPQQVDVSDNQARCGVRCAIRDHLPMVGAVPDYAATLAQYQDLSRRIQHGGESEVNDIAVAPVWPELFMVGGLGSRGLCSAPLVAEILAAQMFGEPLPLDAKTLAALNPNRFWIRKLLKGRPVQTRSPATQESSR

With `Cc1cc2nc3c(=O)[nH]c(=O)nc-3n(C[C@H](O)[C@H](O)[C@H](O)COP(=O)(O)OP(=O)(O)OC[C@H]3O[C@@H](n4cnc5c(N)ncnc54)[C@H](O)[C@@H]3O)c2cc1C` [FAD] the “X-ray crystal structure, 2.30 Å” value was “All three MnmC structures unambiguously exhibited bound FAD (Figure 4A)”.
